# Results taken from patent US20040142961A1, “Utilization of substituted imidazo[1,2-a]-pyridine compounds in pharmaceutical formulations” (priority 2001, published 2004).
# Target: T1, nitric oxide synthase (Rattus norvegicus, UniProt P29476)
# T1 construct: the supernatant was then decanted and frozen in portions; from tissue; host or cells: rat cerebellum, homogenate supernatant after 20,000 g
# Test: HTS NO synthase assay
# Format: biochemical
# Details: 10 μM test compound; enzyme from rat cerebellum; [3H]arginine substrate; read-out: Inhibition of nitric oxide synthase (10 μM) in per cent
# Description: This assay allows the determination of the percentage inhibition of NO synthase by a compound of formula I employed according to the invention by measuring the NO synthase activity under the action of the compound. In this procedure, NO synthase is mixed together with radioactively labelled arginine and the particular compound of formula I under suitable conditions. After interruption of the NO formation reaction at a given point in time, the amount of unreacted arginine is determined directly or indirectly. Comparison of this amount with the amount of arginine remaining from the mixture of NO synthase and arginine free of the test compound of formula I and under otherwise identical conditions gives the percentage inhibition of NO synthase by the test compound. This assay can be carried out as follows:
# (a) incubation of NO synthase with labelled arginine as the substrate in a reaction vessel,
# (b) separation of the labelled arginine from labelled citrulline formed as the product of the enzymatic reaction at a point in time at which the concentration of citrulline is increasing, and
# (c) measurement of the amount of arginine separated in each case.
# The separation is carried out through a filter plate membrane.
# In this HTS NO synthase assay, radioactive arginine is used as the substrate. The assay volume can be chosen in the range between 25 μl and 250 μl, depending on the nature of the microtiter plate (MTP). Cofactors and coenzymes are added, depending on the enzyme source used. The incubation of the batches in this microtiter plate (assay MTP) according to step (a) is carried out at room temperature for between 5 and 60 minutes, depending on the enzyme activity (units) used. At the end of the incubation (step (a)), the plate is placed in a cell harvester equipped with an MTP which has a cation exchanger membrane as the filter base (filter MTP). All the batches of the assay MTP are transferred into this filter MTP and filtered with suction over a cation exchanger filter plate, i.e., a filter paper loaded with phosphate groups. The filter MTP is then washed with buffer or water. Using this procedure, the arginine substrate which remains is bound to the cation exchanger, while the radioactive citrulline formed enzymatically is washed out quantitatively. After drying of the filter MTP and addition of scintillation liquid, the bound arginine can be counted on a scintillation counter. An NO synthase reaction which has not been inhibited is reflected in a low radioactivity. An inhibited enzyme reaction means that the radioactive arginine has not been reacted. That is to say, a high radioactivity is found on the filter. […]
# The plate was then dried for 1 hour at 60° C. in a drying cabinet. […] After a waiting time of 1 hour, the plate was measured on a β-counter.
row,inhibition at 10 µM [%],Structure (SMILES)
1,39,"COc1ccc(-c2cn3ccc(C)cc3n2)cc1 [Example 1, 2-(4-Methoxy-phenyl)-7-methyl-imidazo[1,2-a]pyridine]"
2,68,"Cc1ccn2cc(C)nc2c1 [Example 2, 2,7-Dimethyl-imidazo[1,2-a]pyridine]"
3,53,"Cc1ccn2ccnc2c1 [Example 3, 7-Methyl-imidazo[1,2-a]pyridine]"
4,89,"Cc1ccn2cc(C(C)(C)C)nc2c1 [Example 4, 2-tert-Butyl-7-methyl-imidazo[1,2-a]pyridine]"
